Values of other authors in patent publication US7799357B2, “In vitro resveratrol-rich callus tissues derived from Vitis thunbergii Sieb. et Zucc and method for producing the same” (Tatung Company, priority 2007, dated 2010).

Test system: Nothobranchius furzeri
Settings: short-lived fish Nothobranchius furzeri

Structure (SMILES): Oc1ccc(/C=C/c2cc(O)cc(O)c2)cc1 [Resveratrol, 3,5,4′-trihydroxystilbene]
- extension of maximum lifespan (maximum lifespan): 59%
- extension of median lifespan (median lifespan): 56%
